Laboratory results taken from patent US20060229209A1, “Copolymers based on n-vinylamide as adjuvants and agents for using in the agrotechnical field” (priority 2002, published 2006).

Tested on: Puccinia recondita
Experiment: Improvement in the fungicidal activity: wheat leaves inoculated with Puccinia recondita, sprayed with fungicide plus test additive, visual assessment of infestation
Assay type: in vivo, Puccinia recondita on wheat variety "Kanzler"
Conditions: no test additive, 8 days in greenhouse after spraying
Method: Both of the leaves which developed first of wheat seeds of the variety “Kanzler”, which were raised in pots, were dusted with spores of Puccinia recondita. In order to guarantee the success of the artificial inoculation, the plants were kept for 24 hours in a humidity chamber without light at a relative humidity of 95 to 99% and a temperature of 20 to 22° C. The next day, the plants were sprayed with an aqueous suspension comprising fungicide at the concentration given below as a mixture with water and 125 ppm of the test additive. The plants were allowed to dry in the air. The experimental plants were subsequently cultivated in a greenhouse for 8 days at a temperature of 22 to 26° C. and a relative humidity of between 40 and 80%. The extent of the fungal infestation on the leaves was assessed visually and expressed as a percentage of the affected leaf area with respect to the unaffected leaf area.

SMILES	% affected leaf area (Epoxiconazole 0.125 ppm a.c.) [%]	% affected leaf area (Epoxiconazole 0.25 ppm a.c.) [%]	% affected leaf area (Pyraclostrobin 1 ppm a.c.) [%]	% affected leaf area (Pyraclostrobin 2 ppm a.c.) [%]
Fc1ccc([C@]2(Cn3cncn3)O[C@H]2c2ccccc2Cl)cc1 (racemic) [Epoxiconazole, epoxiconazole]	53	47	–	–
COC(=O)N(OC)c1ccccc1COc1ccn(-c2ccc(Cl)cc2)n1 [Pyraclostrobin, pyraclostrobin]	–	–	32	13
